Entries after “also recorded” stand apart in the source; their conditions may differ. Blank lines part the entries; values can stand above or below the compound they belong to.
Experiments:
Format in all cases: physicochemical
[1] = Dynamic vapor sorption (DVS) isotherm analysis
Method: Approximately 10 mg of material was analyzed using an automated dynamic vapor sorption analyzer (Intrinsic/Advantage) at 25° C. Method 1 for anhydrate undergo humidity cycle of 40-0-95-0-40% RH with stage step of 10% RH during which mass change was recorded. Method 2 for hydrate undergo humidity cycle of 40-95-0-95-40% RH with stage step of 10% RH during which mass change we recorded. Equilibrium set up was 0.002 dm/dt (%/min). Minimum dm/dt stability during in 60 min and maximum dm/dt stability duration is 360 min.

[2] = Stability of crystalline forms as evidenced by DSC and TGA thermograms; details: relative to the other crystalline forms
Method: Approximately 1-2 mg of material was weighed into an aluminum DSC pan with a pin hold. The sample pan then placed on Differential Scanning Calorimetry (TA Discovery 2500) with protected nitrogen flow rate of 50 mL/min. The sample was heated at rate of 10° C./min from 30° C. to 250° C. during which heat flow was recorded.
Approximately 2 mg of material was weighed into an open aluminum pan and loaded into a simultaneous thermogravimetric/differential thermal analyzer (TG Discovery 5500) and held at room temperature. Nitrogen flow rate for balance was 10 mL/min and nitrogen flow rate for sample was 25 mL/min. The sample was then heated at a rate of 10° C./min from 30° C. to 300° C. during which time the change in sample weight was recorded.

[3] = Solubility / in vitro dissolution in biorelevant media
Method: In vitro dissolution profiles were analyzed for Form A and Form F. In vitro drug dissolution and release testing can provide insight into a drug's in vivo performance such as bioavailability.
Because Forms A and F were selected for further pharmaceutical development, dissolution tests were performed on these forms. The tests were performed at different pH and in biorelevant media: hydrochloric acid (HCl), fasted state simulated gastric fluid (FaSSGF), fasted state simulated intestinal fluid (FaSSIF), and fed state simulated intestinal fluid (FeSSIF) (75 rpm, 900 mL). Three 10 mg and 50 mg capsules were analyzed as shown below in Table 18. The capsules include those including only Form A, 90% Form A spiked with 10% of Form F, and Form F. The results are shown in FIGS. 14A-14C (10 mg capsules) and FIGS. 15A-15C (50 mg capsules).

[4] = DVS Cycle 1, target 40.0 % P/Po, 24.8° C.
[5] = DVS Cycle 1, target 50.0 % P/Po, 24.8° C.
[6] = DVS Cycle 1, target 60.0 % P/Po, 24.8° C.
[7] = DVS Cycle 1, target 70.0 % P/Po, 24.8° C.
[8] = DVS Cycle 1, target 80.0 % P/Po, 24.8° C.
[9] = DVS Cycle 1, target 90.0 % P/Po, 24.8° C.
[10] = DVS Cycle 1, target 95.0 % P/Po, 24.8° C.
[11] = DVS Cycle 2, target 40.0 % P/Po, 24.8° C.
[12] = DVS Cycle 2, target 50.0 % P/Po, 24.8° C.
[13] = DVS Cycle 2, target 60.0 % P/Po, 24.8° C.
[14] = DVS Cycle 2, target 70.0 % P/Po, 24.8° C.
[15] = DVS Cycle 2, target 80.0 % P/Po, 24.8° C.
[16] = DVS Cycle 2, target 90.0 % P/Po, 24.8° C.
[17] = DVS Cycle 2, target 95.0 % P/Po, 24.8° C.
[18] = DVS Cycle 1, target 0.0 % P/Po, 24.9° C.
[19] = DVS Cycle 1, target 10.0 % P/Po, 24.9° C.
[20] = DVS Cycle 1, target 20.0 % P/Po, 24.9° C.
[21] = DVS Cycle 1, target 30.0 % P/Po, 24.9° C.
[22] = DVS Cycle 1, target 40.0 % P/Po, 24.9° C.
[23] = DVS Cycle 2, target 0.0 % P/Po, 24.9° C.
[24] = DVS Cycle 2, target 10.0 % P/Po, 24.9° C.
[25] = DVS Cycle 2, target 20.0 % P/Po, 24.9° C.
[26] = DVS Cycle 2, target 30.0 % P/Po, 24.9° C.
[27] = DVS Cycle 2, target 40.0 % P/Po, 24.9° C.

Change In Mass (%) - ref, Desorption ([1]; DVS Cycle 1, target 0.0 % P/Po, 24.8° C.): 0.002%
Change In Mass (%) - ref, Desorption ([1]; DVS Cycle 1, target 10.0 % P/Po, 24.8° C.): 0.350%
Change In Mass (%) - ref, Desorption ([1]; DVS Cycle 1, target 20.0 % P/Po, 24.8° C.): 0.941%
Change In Mass (%) - ref, Desorption ([1]; DVS Cycle 1, target 30.0 % P/Po, 24.8° C.): 3.649%
Change In Mass (%) - ref, Desorption [1, 4]: 4.700%
Change In Mass (%) - ref, Hysteresis [1, 4]: 0.077%
Change In Mass (%) - ref, Sorption [1, 4]: 4.623%
Change In Mass (%) - ref, Desorption [1, 5]: 5.395%
Change In Mass (%) - ref, Hysteresis [1, 5]: 0.283%
Change In Mass (%) - ref, Sorption [1, 5]: 5.112%
Change In Mass (%) - ref, Desorption [1, 6]: 5.814%
Change In Mass (%) - ref, Hysteresis [1, 6]: 0.339%
Change In Mass (%) - ref, Sorption [1, 6]: 5.475%
Change In Mass (%) - ref, Desorption [1, 7]: 6.213%
Change In Mass (%) - ref, Hysteresis [1, 7]: 0.368%
Change In Mass (%) - ref, Sorption [1, 7]: 5.845%
Change In Mass (%) - ref, Desorption [1, 8]: 6.535%
Change In Mass (%) - ref, Hysteresis [1, 8]: 0.341%
Change In Mass (%) - ref, Sorption [1, 8]: 6.194%
Change In Mass (%) - ref, Desorption [1, 9]: 6.824%
Change In Mass (%) - ref, Hysteresis [1, 9]: 0.230%
Change In Mass (%) - ref, Sorption [1, 9]: 6.594%
Change In Mass (%) - ref, Desorption [1, 10]: 6.838%
Change In Mass (%) - ref, Sorption [1, 10]: 6.838%
Change In Mass (%) - ref, Sorption ([1]; DVS Cycle 2, target 0.0 % P/Po, 24.8° C.): 0.002%
Change In Mass (%) - ref, Sorption ([1]; DVS Cycle 2, target 10.0 % P/Po, 24.8° C.): 0.312%
Change In Mass (%) - ref, Sorption ([1]; DVS Cycle 2, target 20.0 % P/Po, 24.8° C.): 0.853%
Change In Mass (%) - ref, Sorption ([1]; DVS Cycle 2, target 30.0 % P/Po, 24.8° C.): 3.253%
Change In Mass (%) - ref, Desorption [1, 11]: 4.601%
Change In Mass (%) - ref, Hysteresis [1, 11]: 0.375%
Change In Mass (%) - ref, Sorption [1, 11]: 4.225%
Change In Mass (%) - ref, Desorption [1, 12]: 5.295%
Change In Mass (%) - ref, Hysteresis [1, 12]: 0.495%
Change In Mass (%) - ref, Sorption [1, 12]: 4.800%
Change In Mass (%) - ref, Desorption [1, 13]: 5.715%
Change In Mass (%) - ref, Hysteresis [1, 13]: 0.466%
Change In Mass (%) - ref, Sorption [1, 13]: 5.248%
Change In Mass (%) - ref, Desorption [1, 14]: 6.129%
Change In Mass (%) - ref, Hysteresis [1, 14]: 0.423%
Change In Mass (%) - ref, Sorption [1, 14]: 5.706%
Change In Mass (%) - ref, Desorption [1, 15]: 6.446%
Change In Mass (%) - ref, Hysteresis [1, 15]: 0.324%
Change In Mass (%) - ref, Sorption [1, 15]: 6.122%
Change In Mass (%) - ref, Desorption [1, 16]: 6.737%
Change In Mass (%) - ref, Hysteresis [1, 16]: 0.201%
Change In Mass (%) - ref, Sorption [1, 16]: 6.536%
Change In Mass (%) - ref, Desorption [1, 17]: 6.745%
Change In Mass (%) - ref, Sorption [1, 17]: 6.745%
Structure (SMILES): O=C1CCc2c(Oc3ccc4c(c3)C[C@@H](c3nc(-c5ccc(F)cc5)c[nH]3)CO4)ccnc2N1 [Form A, (S)-5-((3-(4-(4-fluorophenyl)-1H-imidazol-2-yl)chroman-6-yl)oxy)-3,4-dihydro-1,8-naphthyridin-2(1H)-one]
stability of the crystalline form [2]: high degree of crystallinity and stability; also recorded: increased stability

Change In Mass (%) - ref, Desorption [1, 18]: 0.006%
Change In Mass (%) - ref, Sorption [1, 18]: 0.006%
Change In Mass (%) - ref, Desorption [1, 19]: 0.301%
Change In Mass (%) - ref, Hysteresis [1, 19]: 0.128%
Change In Mass (%) - ref, Sorption [1, 19]: 0.173%
Change In Mass (%) - ref, Desorption [1, 20]: 0.458%
Change In Mass (%) - ref, Hysteresis [1, 20]: 0.134%
Change In Mass (%) - ref, Sorption [1, 20]: 0.324%
Change In Mass (%) - ref, Desorption [1, 21]: 0.566%
Change In Mass (%) - ref, Hysteresis [1, 21]: 0.111%
Change In Mass (%) - ref, Sorption [1, 21]: 0.455%
Change In Mass (%) - ref, Desorption [1, 22]: 0.649%
Change In Mass (%) - ref, Hysteresis [1, 22]: 0.075%
Change In Mass (%) - ref, Sorption [1, 22]: 0.574%
Change In Mass (%) - ref, Sorption ([1]; DVS Cycle 1, target 50.0 % P/Po, 24.9° C.): 0.690%
Change In Mass (%) - ref, Sorption ([1]; DVS Cycle 1, target 60.0 % P/Po, 24.9° C.): 0.813%
Change In Mass (%) - ref, Sorption ([1]; DVS Cycle 1, target 70.0 % P/Po, 24.9° C.): 0.964%
Change In Mass (%) - ref, Sorption ([1]; DVS Cycle 1, target 80.0 % P/Po, 24.9° C.): 1.160%
Change In Mass (%) - ref, Sorption ([1]; DVS Cycle 1, target 90.0 % P/Po, 24.9° C.): 1.601%
Change In Mass (%) - ref, Sorption ([1]; DVS Cycle 1, target 95.0 % P/Po, 24.9° C.): 1.911%
Change In Mass (%) - ref, Desorption [1, 23]: 0.156%
Change In Mass (%) - ref, Sorption [1, 23]: 0.156%
Change In Mass (%) - ref, Desorption [1, 24]: 0.718%
Change In Mass (%) - ref, Hysteresis [1, 24]: 0.355%
Change In Mass (%) - ref, Sorption [1, 24]: 0.363%
Change In Mass (%) - ref, Desorption [1, 25]: 1.060%
Change In Mass (%) - ref, Hysteresis [1, 25]: 0.495%
Change In Mass (%) - ref, Sorption [1, 25]: 0.565%
Change In Mass (%) - ref, Desorption [1, 26]: 1.291%
Change In Mass (%) - ref, Hysteresis [1, 26]: 0.539%
Change In Mass (%) - ref, Sorption [1, 26]: 0.752%
Change In Mass (%) - ref, Desorption [1, 27]: 1.459%
Change In Mass (%) - ref, Hysteresis [1, 27]: 0.532%
Change In Mass (%) - ref, Sorption [1, 27]: 0.927%
Change In Mass (%) - ref, Desorption ([1]; DVS Cycle 2, target 50.0 % P/Po, 24.9° C.): 1.595%
Change In Mass (%) - ref, Desorption ([1]; DVS Cycle 2, target 60.0 % P/Po, 24.9° C.): 1.711%
Change In Mass (%) - ref, Desorption ([1]; DVS Cycle 2, target 70.0 % P/Po, 24.9° C.): 1.813%
Change In Mass (%) - ref, Desorption ([1]; DVS Cycle 2, target 80.0 % P/Po, 24.9° C.): 1.901%
Change In Mass (%) - ref, Desorption ([1]; DVS Cycle 2, target 90.0 % P/Po, 24.9° C.): 1.964%
Change In Mass (%) - ref, Desorption ([1]; DVS Cycle 2, target 95.0 % P/Po, 24.9° C.): 1.911%
Structure (SMILES): O=C1CCc2c(Oc3ccc4c(c3)C[C@@H](c3nc(-c5ccc(F)cc5)c[nH]3)CO4)ccnc2N1 [Form F, (S)-5-((3-(4-(4-fluorophenyl)-1H-imidazol-2-yl)chroman-6-yl)oxy)-3,4-dihydro-1,8-naphthyridin-2(1H)-one]
stability of the crystalline form [2]: high degree of crystallinity and stability; also recorded: increased stability

solubility [3]: poorly soluble
Structure (SMILES): O=C1CCc2c(Oc3ccc4c(c3)C[C@@H](c3nc(-c5ccc(F)cc5)c[nH]3)CO4)ccnc2N1 [Compound I, (S)-5-((3-(4-(4-fluorophenyl)-1H-imidazol-2-yl)chroman-6-yl)oxy)-3,4-dihydro-1,8-naphthyridin-2(1H)-one]
